From ChEMBL document CHEMBL1136918, “Optimization of pyrazole inhibitors of Coactivator Associated Arginine Methyltransferase 1 (CARM1)” (Bioorg Med Chem Lett, 2009)
One block for each molecule: values may come before it.

Legend:
[1] = target: T1, Histone-arginine methyltransferase CARM1 (Homo sapiens, UniProt Q86X55); assay: Inhibition of CARM1 assessed as blockade of histone H3 methylation
T1 sequence (Q86X55 whole entry): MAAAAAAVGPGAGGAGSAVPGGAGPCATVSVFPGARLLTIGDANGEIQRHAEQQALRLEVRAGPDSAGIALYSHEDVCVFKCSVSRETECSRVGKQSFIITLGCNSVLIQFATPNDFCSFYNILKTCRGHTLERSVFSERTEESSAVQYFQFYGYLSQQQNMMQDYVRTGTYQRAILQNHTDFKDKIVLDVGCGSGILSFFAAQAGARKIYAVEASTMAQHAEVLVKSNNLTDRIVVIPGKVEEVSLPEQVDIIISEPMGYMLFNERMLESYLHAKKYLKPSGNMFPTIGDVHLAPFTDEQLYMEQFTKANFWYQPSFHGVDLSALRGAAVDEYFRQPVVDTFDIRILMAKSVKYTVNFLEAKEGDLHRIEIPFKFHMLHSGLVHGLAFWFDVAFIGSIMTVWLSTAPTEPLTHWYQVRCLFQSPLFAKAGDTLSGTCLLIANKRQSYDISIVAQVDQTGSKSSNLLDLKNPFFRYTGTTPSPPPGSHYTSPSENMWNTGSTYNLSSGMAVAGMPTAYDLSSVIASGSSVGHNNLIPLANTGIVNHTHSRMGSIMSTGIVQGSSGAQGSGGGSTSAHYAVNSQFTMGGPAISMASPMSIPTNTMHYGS

[2] = Membrane permeability by PAMPA; assay type: ADME; conditions: read-out: permeability
Cytochrome P450 3A4 = Cytochrome P450 3A4 (Homo sapiens, UniProt P08684); assay: Inhibition of CYP3A4 expressed in human hepatocytes; assay type: ADME, cell-based, Hepatocyte
Cytochrome P450 3A4, sequence (P08684 whole entry): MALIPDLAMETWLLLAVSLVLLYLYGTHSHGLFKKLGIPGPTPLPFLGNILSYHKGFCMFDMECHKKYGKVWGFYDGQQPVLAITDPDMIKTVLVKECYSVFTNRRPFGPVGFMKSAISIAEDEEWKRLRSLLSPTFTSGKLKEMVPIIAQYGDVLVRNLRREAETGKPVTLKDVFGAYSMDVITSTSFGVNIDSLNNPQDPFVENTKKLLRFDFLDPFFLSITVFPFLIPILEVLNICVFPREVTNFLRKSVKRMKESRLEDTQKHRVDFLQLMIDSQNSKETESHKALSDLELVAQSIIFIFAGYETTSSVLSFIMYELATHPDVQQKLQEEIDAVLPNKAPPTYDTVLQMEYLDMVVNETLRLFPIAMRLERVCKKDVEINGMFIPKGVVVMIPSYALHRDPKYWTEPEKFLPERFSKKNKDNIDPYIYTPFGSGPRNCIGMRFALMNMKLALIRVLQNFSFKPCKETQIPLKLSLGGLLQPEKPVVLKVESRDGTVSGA

Cytochrome P450 2C9 = Cytochrome P450 2C9 (Homo sapiens, UniProt P11712); assay: Inhibition of CYP2C9 expressed in human hepatocytes; assay type: ADME, cell-based, Hepatocyte
Cytochrome P450 2C9, sequence (P11712 whole entry): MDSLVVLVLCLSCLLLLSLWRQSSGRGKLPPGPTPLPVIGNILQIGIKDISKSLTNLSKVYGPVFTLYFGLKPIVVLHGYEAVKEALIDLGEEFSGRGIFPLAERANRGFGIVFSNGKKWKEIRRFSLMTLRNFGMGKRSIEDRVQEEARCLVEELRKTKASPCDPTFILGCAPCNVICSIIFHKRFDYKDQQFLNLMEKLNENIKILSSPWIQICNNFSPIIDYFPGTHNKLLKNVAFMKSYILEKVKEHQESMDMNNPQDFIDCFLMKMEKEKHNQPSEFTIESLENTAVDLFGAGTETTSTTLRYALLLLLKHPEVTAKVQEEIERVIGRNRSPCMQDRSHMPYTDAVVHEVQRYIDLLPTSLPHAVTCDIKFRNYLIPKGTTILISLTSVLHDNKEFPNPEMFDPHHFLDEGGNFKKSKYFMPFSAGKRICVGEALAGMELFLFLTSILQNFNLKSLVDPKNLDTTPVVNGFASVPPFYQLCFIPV

Cytochrome P450 2C19 = Cytochrome P450 2C19 (Homo sapiens, UniProt P33261); assay: Inhibition of CYP2C19 expressed in human hepatocytes; assay type: ADME, cell-based, Hepatocyte
Cytochrome P450 2C19, sequence (P33261 whole entry): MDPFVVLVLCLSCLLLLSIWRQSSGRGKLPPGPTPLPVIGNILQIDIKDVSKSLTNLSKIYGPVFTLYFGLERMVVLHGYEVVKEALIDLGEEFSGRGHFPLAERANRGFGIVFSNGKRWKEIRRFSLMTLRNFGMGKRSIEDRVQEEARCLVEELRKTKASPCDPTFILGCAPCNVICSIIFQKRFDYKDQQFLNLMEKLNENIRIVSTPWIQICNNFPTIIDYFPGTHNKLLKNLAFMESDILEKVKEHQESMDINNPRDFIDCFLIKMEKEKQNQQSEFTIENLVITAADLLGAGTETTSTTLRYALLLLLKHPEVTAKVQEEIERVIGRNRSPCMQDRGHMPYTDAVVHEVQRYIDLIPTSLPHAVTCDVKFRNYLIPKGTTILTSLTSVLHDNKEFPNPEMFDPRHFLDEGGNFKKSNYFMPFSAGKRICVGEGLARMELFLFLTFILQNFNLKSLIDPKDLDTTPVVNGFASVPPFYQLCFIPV

[3] = Toxicity against human hepatocytes; assay type: cell-based, Hepatocyte
[4] = target: T2, Nuclear receptor subfamily 1 group I member 2 (Homo sapiens, UniProt O75469); assay: Inhibition of human PXR
T2 sequence (O75469 whole entry): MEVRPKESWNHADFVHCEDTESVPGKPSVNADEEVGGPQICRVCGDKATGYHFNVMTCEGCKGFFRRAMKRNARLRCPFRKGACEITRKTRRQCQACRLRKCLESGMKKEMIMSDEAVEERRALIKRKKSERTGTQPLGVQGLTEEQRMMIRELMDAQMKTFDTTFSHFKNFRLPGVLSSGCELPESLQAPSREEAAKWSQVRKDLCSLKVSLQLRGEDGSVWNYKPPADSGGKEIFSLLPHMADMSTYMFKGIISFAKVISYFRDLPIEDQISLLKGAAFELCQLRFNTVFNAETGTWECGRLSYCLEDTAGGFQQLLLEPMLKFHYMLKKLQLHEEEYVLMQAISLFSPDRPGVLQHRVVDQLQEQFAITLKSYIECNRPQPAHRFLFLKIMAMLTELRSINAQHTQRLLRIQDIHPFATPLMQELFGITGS

[5] = Metabolic stability in human microsomes per microgram of protein; assay type: ADME, Microsome
[6] = target: Protein arginine N-methyltransferase 3 (Homo sapiens, UniProt O60678); assay: Inhibition of PRMT3 by methylation assay
Protein arginine N-methyltransferase 3, sequence (O60678 whole entry): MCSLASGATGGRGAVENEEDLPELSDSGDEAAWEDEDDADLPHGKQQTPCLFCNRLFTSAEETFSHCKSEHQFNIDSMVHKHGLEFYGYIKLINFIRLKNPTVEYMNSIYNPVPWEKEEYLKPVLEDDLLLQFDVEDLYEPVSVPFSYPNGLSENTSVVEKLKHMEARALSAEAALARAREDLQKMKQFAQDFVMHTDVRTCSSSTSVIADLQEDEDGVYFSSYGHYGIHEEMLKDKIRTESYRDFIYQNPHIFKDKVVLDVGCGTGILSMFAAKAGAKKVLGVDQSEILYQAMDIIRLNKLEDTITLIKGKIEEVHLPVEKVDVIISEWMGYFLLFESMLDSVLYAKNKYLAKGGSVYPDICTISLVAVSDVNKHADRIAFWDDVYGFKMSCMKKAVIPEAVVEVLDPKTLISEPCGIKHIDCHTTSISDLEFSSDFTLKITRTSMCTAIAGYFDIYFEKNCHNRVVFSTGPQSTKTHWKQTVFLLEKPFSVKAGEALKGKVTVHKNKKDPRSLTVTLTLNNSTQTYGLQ

Cytochrome P450 2D6 = Cytochrome P450 2D6 (Homo sapiens, UniProt P10635); assay: Inhibition of CYP2D6 expressed in human hepatocytes; assay type: ADME, cell-based, Hepatocyte
Cytochrome P450 2D6, sequence (P10635 whole entry): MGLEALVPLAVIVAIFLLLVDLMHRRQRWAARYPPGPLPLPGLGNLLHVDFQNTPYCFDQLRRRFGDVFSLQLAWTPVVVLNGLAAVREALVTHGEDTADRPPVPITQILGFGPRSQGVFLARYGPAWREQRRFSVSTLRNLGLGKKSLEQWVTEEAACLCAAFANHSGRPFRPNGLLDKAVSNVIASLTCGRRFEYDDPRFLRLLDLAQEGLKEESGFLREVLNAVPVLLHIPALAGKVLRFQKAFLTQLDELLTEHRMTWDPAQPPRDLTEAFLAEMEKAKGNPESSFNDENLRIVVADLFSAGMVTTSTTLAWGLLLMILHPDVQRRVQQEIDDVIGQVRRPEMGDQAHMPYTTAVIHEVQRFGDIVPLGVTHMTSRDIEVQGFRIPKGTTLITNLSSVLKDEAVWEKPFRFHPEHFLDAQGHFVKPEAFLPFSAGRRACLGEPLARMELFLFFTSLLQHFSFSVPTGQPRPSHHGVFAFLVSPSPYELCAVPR

[7] = target: Protein arginine N-methyltransferase 1 (Homo sapiens, UniProt Q99873); assay: Inhibition of PRMT1 by methylation assay
Protein arginine N-methyltransferase 1, sequence (Q99873 whole entry): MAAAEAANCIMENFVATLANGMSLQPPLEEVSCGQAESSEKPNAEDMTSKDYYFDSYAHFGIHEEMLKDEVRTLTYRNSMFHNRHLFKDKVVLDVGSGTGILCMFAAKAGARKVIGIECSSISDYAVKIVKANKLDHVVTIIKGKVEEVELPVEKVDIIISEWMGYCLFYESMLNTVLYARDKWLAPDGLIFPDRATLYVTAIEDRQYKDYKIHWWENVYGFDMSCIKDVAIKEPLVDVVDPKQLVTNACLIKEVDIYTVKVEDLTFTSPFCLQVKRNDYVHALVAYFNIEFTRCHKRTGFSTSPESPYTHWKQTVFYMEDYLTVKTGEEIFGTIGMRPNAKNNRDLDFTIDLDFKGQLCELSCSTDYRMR

SMILES: C[C@H](N)C(=O)NCc1cccc(-n2nc(C(F)(F)F)cc2C(=O)NCc2ccccc2)c1
Papp [2]: < 15 nm/s

SMILES: C[C@H](N)C(=O)NCc1cccc(-n2nc(C(F)(F)F)cc2-c2nnc(-c3cccc4ncsc34)o2)c1
IC50 (Cytochrome P450 3A4): > 100 µM
IC50 (Cytochrome P450 2C9): > 100 µM
IC50 (Cytochrome P450 2C19): > 100 µM
IC50 [1]: 0.04 µM
Papp [2]: 267 nm/s
IC50 [3]: > 100 µM
EC50 [4]: > 25 µM
Stability [5]: 0.026 nM/min
IC50 [6]: > 25 µM
IC50 (Cytochrome P450 2D6): > 100 µM
IC50 [7]: > 25 µM

SMILES: C[C@H](N)C(=O)N(C)Cc1cccc(-n2nc(C(F)(F)F)cc2-c2nnc(-c3ccccc3)o2)c1
IC50 [1]: > 10 µM

SMILES: COc1ccccc1Nc1nnc(-c2cc(C(F)(F)F)nn2-c2cccc(CNC(=O)[C@H](C)N)c2)o1
Papp [2]: < 15 nm/s

The next lines start with the values.

IC50 [1]: > 10 µM
SMILES: C[C@H](N)CNCc1cccc(-n2nc(C(F)(F)F)cc2-c2nnc(-c3ccccc3)o2)c1

Papp [2]: 106 nm/s
SMILES: C[C@H](N)C(=O)NCc1cccc(-n2nc(C(F)(F)F)cc2-c2nnc(-c3ccccc3)o2)c1
